The subject of experiment [1] is Dictyostelium discoidium strain NC4A2 cells. The experiment can be described thus: ECIS/taxis under-agarose chemotaxis assay, cell movement in a folate gradient. Type of experiment: cell-based. Here is the method:
Dictyostelium discoidium strain NC4A2 is an axenic cell line derived from the wild type NC4 line. The myosin II heavy chain mutant (HK323) was generated by homologous recombination to delete the coding portion of the gene in the NC4A2 cell line. Cells were maintained in HL5 media in 100 mm petri dishes with media changes every three days. Cells to be used for experimental procedures were harvested at mid-log phase. Cells were centrifuged at 200×g for 5 minutes at room temperature, re-suspended in fresh media and counted with a Z2 particle counter (Coulter, Miami, Fla.). Chambers were loaded with 10^6 cells per well.
Chemotaxis assays were adapted from the under-agarose chemotaxis method. Briefly, a 0.5% solution of GTG agarose (FMC Corporation, Rockland, Me.) was prepared in 1×SM media (10 g Difco Bacto-Peptone, 10 g glucose, 1 g yeast extract, 1.9 g KH2PO4, 0.6 g K2HPO4, 0.43 g MgSO4 per liter, pH 6.5). For chemokinetic assays, 2×SM agarose media was premixed with an equal volume of 2× folic acid and then added to the chamber to harden.
The chemoattractant folic acid (Research Organics, Inc. Cleveland, Ohio) stock at 100 mM was prepared by dissolving 0.44 g folate in 220 ul of 10 M NaOH. The final volume was adjusted to 10 ml with distilled water. The solution was filter sterilized through a 0.2 micron filter, aliquoted and stored frozen at −20° C. in the dark. The folate solution was adjusted to the appropriate concentration and added to wells one hour prior to the addition of cells to allow for establishment of the chemotactic gradient. […] Following this incubation, the cells were washed three times in PDF and then re-suspended in PDF before placement in the cell wells of ECIS/taxis chambers.
The commercially available ECIS electrode configuration (Applied Biophysics, Inc., Troy, N.Y.) consists of 8 chambers per array, each with a large electrode and a small target electrode (see panel A of FIG. 2). These chambers were filled with 300 μL of a 0.5% solution of melted agarose prepared as described above. […]
The chemoattractant was then loaded into one well in appropriate chambers and the gradient was allowed to form for one hour. […] Impedance to this current flow was measured and a resistance value was calculated according to established protocols. […] In the results presented below, the data is presented as normalized resistance, which is calculated as a fraction of the initial resistance of the chamber at the start of the experiment.
A gradient was established by loading 1 mM folate into the chemoattractant well of a modified ECIS chamber, and one hour later Dictyostelium cells were placed in the adjacent cell well. […] In order to visualize the arrival of the cells at the target electrode, the cells exposed to folate were continuously monitored by video microscopy. […]

The test system of another experiment is Dictyostelium cells. Nature of the experiment: Inhibition of chemotactic response to folic acid by cisplatin, ECIS/taxis. Format: cell-based, Dictyostelium discoidium. The following applies: increasing concentrations of cisplatin, folic acid as chemoattractant.

Method for Dictyostelium cells: These chambers were filled with 300 μL of a 0.5% solution of melted agarose prepared as described above. The thickness of the agarose layer is 4 mm. […]

For `Nc1nc2ncc(CNc3ccc(C(=O)N[C@@H](CCC(=O)O)C(=O)O)cc3)nc2c(=O)[nH]1` [folate, folic acid], the “absolute number of cells that arrive at the electrode versus folate dose” value in experiment [1] (folate 0.16 to 1 mM in chemoattractant well) is reported as “absolute number of cells that arrive decreases as the dose of folate used to establish the gradient decreases”. Moreover, the “time of arrival of cells at the target electrode after placement of cells in the cell well” value in experiment [1] (gradient formed by 1 mM folate) is reported as “approximately 3.5 hours”. Moreover, the “average speed of cell movement to the target electrode” value in experiment [1] (gradient from 1 mM folate) is given as “approximately 10 μm/min”. In addition, the “time of first small resistance peak (initial cell spreading on the target electrode)” value in experiment [1] (gradient from 1 mM folate in chemoattractant well, loaded 1 h before cells, wells 2 mm from electrode) was determined as 3.75 h.

As for `N.N.[Cl][Pt][Cl]` [cisplatin, Cisplatin], the “effect on time of arrival of cells at the electrode” value in the experiment with Dictyostelium cells was “delayed in a manner proportional to the dose of cisplatin”.
